Reference: patent publication US9309226B2, “Crystalline form I of tyrosine kinase inhibitor dimaleate and preparation methods thereof” (Jiangsu Hengrui Medicine Co., Ltd., priority 2012, dated 2016)
Entries after “also recorded” stand apart in the source; their conditions may differ.

What was measured:
[1] = Stability of the solid placed open in the air under illumination, heating and humidity, HPLC analysis; assay type: physicochemical; conditions: for HPLC analysis result, 60° C.: heating 60° C.; for HPLC analysis result, RH 90%: humidity RH 90%; for HPLC analysis result, Light: illumination 4500 Lux
Procedure: The form I crystal of SHR1258 dimaleate prepared in Example 1 and the amorphous form of SHR1258 dimaleate prepared in Example 2 were placed open in the air to test the stability in various conditions including illumination (4500 Lux), heating (60° C.), and humidity (RH 90%).

[2] = Crystal form stability after grinding, heating and pressing, evaluated by X-ray diffraction and DSC; assay type: physicochemical; conditions: for Stability under grinding, pressure and heating: grinded, heated and pressed, X-ray diffraction and DSC
From the text: The form I crystal of SHR1258 dimaleate prepared in Example 1 was grinded, heated and pressed, then evaluated by X-ray diffraction and DSC patterns.

Row | HPLC analysis result, 60° C. ([1]; day 0) [%] | HPLC analysis result, 60° C. ([1]; day 5) [%] | HPLC analysis result, 60° C. ([1]; day 10) [%] | HPLC analysis result, RH 90% ([1]; day 0) [%] | HPLC analysis result, RH 90% ([1]; day 5) [%] | HPLC analysis result, RH 90% ([1]; day 10) [%] | Stability under illumination, form I crystal compared with amorphous form [1] | HPLC analysis result, Light ([1]; day 0) [%] | HPLC analysis result, Light ([1]; day 5) [%] | HPLC analysis result, Light ([1]; day 10) [%] | Stability under grinding, pressure and heating [2] | Stability under grinding, pressure and heating ([2]; listed as form I crystal of SHR1258 dimaleate) | Crystal (form after process) ([2]; grinding for 10 min under nitrogen atmosphere) | Crystal (form after process) ([2]; heating at 80° C. for 3 hours) | Crystal (form after process) ([2]; pressing into pieces) | SMILES | Stability under high temperature and high moisture, compared with amorphous form ([1]; high temperature and high humidity, listed as form I crystal of SHR1258 dimaleate)
1 | 98.41 | 95.24 | 93.71 | 98.41 | 96.95 | 96.31 | similar | 98.41 | 96.96 | 96.91 |  |  |  |  |  | CCOc1cc2ncc(C#N)c(Nc3ccc(OCc4ccccn4)c(Cl)c3)c2cc1NC(=O)/C=C/[C@H]1CCCN1C [Amorphous Form] | 
2 | 99.65 | 98.13 | 96.86 | 99.65 | 98.35 | 98.35 | similar | 99.65 | 98.20 | 97.91 | good stability | stable | Form I | Form I | Form I | CCOc1cc2ncc(C#N)c(Nc3ccc(OCc4ccccn4)c(Cl)c3)c2cc1NC(=O)/C=C/[C@H]1CCCN1C [Form I Crystal, (R, E)-N-(4-(3-chloro-4-(pyridin-2-yl-methoxy)phenylamino)-3-cyano-7-ethoxyquinolin-6-yl)-3-(1-methylpyrrolidino-2-yl)acrylamide dimaleate] | significantly better than the amorphous form; also recorded: more stable
